# Measurements: patent US20080167314A1, “Condensed Imidazole Compound And Use Thereof” (priority 2004, published 2008)
# Experiments:
# [1] = tested on: TNF-α production in THP-1 cells; experiment: Measurement of TNF-α production inhibitory activity in LPS-stimulated THP-1 cells (ELISA); type: cell-based; details: Homo sapiens, LPS 5 μg/mL, 4 hours, TNF-α in supernatant by ELISA
# Protocol: Measurement of TNF-α Production Inhibitory Activity
# After THP-1 cells which had been cultured in PRMI 1640 medium (manufactured by Life Technologies, Inc.) containing 1% non-activated bovine fetal serum (manufactured by Life Technologies, Inc., U.S.A.) and 10 mM HEPES (pH 7.5) was plated on a 96-well plate to 1×10^5 cells/well, 1 μL test compound dissolved in DMSO was added to there. After incubation at 37° C. for 1 hour in a CO2 incubator, LPS (Wako Pure Chemicals) was added to the final concentration 5 μg/mL. After cultured at 37° C. for 4 hours in a CO2 incubator, the supernatant was obtained by centrifugation. The concentration of TNF-α in the supernatant was measured with ELISA (R&D System, Quantikine Kit). The concentration (IC50 value) necessary for inhibiting TNF-α production by 50% was calculated by PRIMS 2.01 (Graphpad Software).
# [2] = tested on: MMP-13 production in human normal articular chondrocytes; experiment: Measurement of MMP-13 production inhibitory activity in rhIL-1β-stimulated human normal articular chondrocytes (ELISA); type: cell-based; details: Chondrocyte, rhIL-1β 0.1 ng/mL, 24 hr, MMP-13 in culture supernatant by ELISA
# Protocol: Measurement of MMP-13 Production Inhibitory Activity
# Human normal articular chondrocytes (Camblex) were grown in a chondrocyte growth medium (CGM: Camblex), and the cells were suspended in a chondrocyte differentiation medium (CDM: Camblex) and plated on a 96 well plate at 2×10^4 cells/well (150 μL/well). After culturing for 3 days under 37° C., 5% CO2 conditions, the culture medium was exchanged to 0.1% BSA added α-modification of Eagle's (α-MEM: Gibco), and the cells were cultured for 4 hr. The compound was added thereto and, after culture for 1 hr, recombinant human IL-1β (rhIL-1β: R&D systems) was added at 0.1 ng/mL. After culture for 24 hr, the culture supernatant was recovered, and the concentration of MMP-13 in the culture supernatant was measured by the ELISA method (Amersham).
# [3] = molecular target: T1, active form p38 MAP kinase (Homo sapiens, UniProt Q16539); experiment: Measurement of the p38 MAP kinase inhibitory activity (32P uptake into Myelin Basic Protein); type: biochemical; details: 260 ng active form p38 MAP kinase, 1 μg Myelin Basic Protein, 2.5 μM ATP solution, 30° C. for 60 minutes
# T1 construct: made in house; host or cells: Sf-21 insect cells, baculovirus BAC-HP38 co-infected with BAC-caMKK3
# T1 sequence (Q16539 whole entry): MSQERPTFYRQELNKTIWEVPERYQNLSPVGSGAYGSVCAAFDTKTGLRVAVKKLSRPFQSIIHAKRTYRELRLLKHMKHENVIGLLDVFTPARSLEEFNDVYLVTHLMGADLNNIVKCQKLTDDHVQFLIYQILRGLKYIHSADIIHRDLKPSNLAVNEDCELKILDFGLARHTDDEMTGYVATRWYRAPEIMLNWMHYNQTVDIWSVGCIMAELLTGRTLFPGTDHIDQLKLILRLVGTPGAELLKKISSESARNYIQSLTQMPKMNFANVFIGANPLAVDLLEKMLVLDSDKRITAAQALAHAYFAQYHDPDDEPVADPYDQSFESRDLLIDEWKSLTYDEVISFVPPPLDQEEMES
# Protocol: (1) Cloning of Human p38 MAP Kinase Gene and Preparation of Recombinant Baculovirus
# Cloning of human p38 MAP kinase gene was performed by a PCR method using a primer set P38-U:
# (3) Preparation of Active Form p38 MAP Kinase
# The Sf-21 cells were seeded on 100 ml Sf-900II SFM medium (GIBCOBRL) to 1×10^6 cells/mL and cultured at 27° C. for 24 hours. After each 0.2 mL of the virusstock BAC-HP38 of recombinant Baculovirus and BAC-caMKK3 were added, the culturing was further performed for 48 hours. After the cells were separated from the culturing solution by centrifugation (3000 rpm, 10 min), the cells were washed twice with PBS. After the cells were suspended in 10 ml Lysis buffer (25 mM HEPES (pH 7.5), 1% Triton X, 130 mM NaCl, 1 mM EDTA, 1 mM DTT, 25 mM β-glycerophosphate, […], 1 mM APMSF, 1 mM Sodium orthovanadate), the cells were lysed by treating twice with a homogenizer (POLYTRON) at 20000 rpm for 2 minutes. By using Anti-FLAG M2 Affinity Gel (Eastman Chemical), active form p38 MAP kinase was purified from the supernatant obtained by centrifugation (40000 rpm, 45 minutes).
# (4) Measurement of the p38 MAP Kinase Inhibitory Activity
# 2.5 μL of a test compound dissolved in DMSO was added to 37.5 μL reaction solution (25 mM HEPES (pH 7.5), 10 mM Magnesium Acetate) containing 260 ng active form p38 MAP kinase and 1 μg Myelin Basic Protein, which was maintained at 30° C. for 5 minutes. The reaction was initiated by adding 10 μL ATP solution (2.5 μM ATP, 0.1 μCi [g-^32P]ATP). After the reaction was performed at 30° C. for 60 minutes, the reaction was stopped by adding 50 μL 20% TCA solution. After the reaction solution was allowed to stand at 0° C. for 20 minutes, an acid insoluble fraction was transferred to GF/C filter (Packard Japan) using Cell Harvester (Packard Japan) and washed with 250 mM H3PO4. After drying at 45° C. for 60 minutes, […] Microscint 0 (Packard Japan) was added and the radioactivity was measured with a TopCount (Packard Japan). The concentration (IC50 value) necessary for inhibiting uptake of ^32P into an acid insoluble fraction by 50% was calculated with PRISM 2.01 (Graphpad Software).
compound,measurement,setting,value
"Cc1cccc(-c2nc3ccc(Cl)nn3c2-c2ccnc(F)c2)c1 [Example 1, 6-Chloro-3-(2-fluoropyridin-4-yl)-2-(3-methylphenyl)imidazo[1,2-b]pyridazine]",IC50,[1],0.95 µM
same,IC50,[2],0.6 µM
same,IC50,[3],0.11 µM
"Cc1cccc(-c2nc3ccc(Cl)nn3c2-c2ccnc(NC3CCCCC3)c2)c1 [Example 2, 4-[6-Chloro-2-(3-methylphenyl)imidazo[1,2-b]pyridazin-3-yl]-N-cyclohexylpyridin-2-amine]",IC50,[1],0.028 µM
same,IC50,[2],0.011 µM
same,IC50,[3],0.19 µM
"Cc1cccc(-c2nc3cccnn3c2-c2ccnc(F)c2)c1 [Example 4, 3-(2-fluoropyridin-4-yl)-2-(3-methylphenyl)imidazo[1,2-b]pyridazine]",IC50,[1],0.32 µM
same,IC50,[2],1.52 µM
same,IC50,[3],0.16 µM
"Cc1cccc(-c2nc3cccnn3c2-c2ccnc(NCC3CC3)c2)c1 [Example 5, N-(Cyclopropylmethyl)-4-[2-(3-methylphenyl)imidazo[1,2-b]pyridazin-3-yl]pyridin-2-amine]",IC50,[1],0.0039 µM
same,IC50,[2],0.011 µM
same,IC50,[3],0.0025 µM
"Cc1cccc(-c2nc3ccc(N(C)C)nn3c2-c2ccnc(NC3CCCCC3)c2)c1 [Example 7, 3-[2-(cyclohexylamino)pyridin-4-yl]-N,N-dimethyl-2-(3-methylphenyl)imidazo[1,2-b]pyridazin-6-amine]",IC50,[1],0.0001 µM
same,IC50,[2],0.0051 µM
same,IC50,[3],0.0087 µM
"CC(=O)Nc1cc(-c2c(-c3cccc(C)c3)nc3ccc(Cl)nn23)ccn1 [Example 17, N-{4-[6-Chloro-2-(3-methylphenyl)imidazo[1,2-b]pyridazin-3-yl]pyridin-2-yl}acetamide]",IC50,[1],0.12 µM
same,IC50,[2],0.22 µM
same,IC50,[3],0.023 µM
"Cc1cccc(-c2nc3cccnn3c2-c2ccnc(NC(=O)c3ccccc3)c2)c1 [Example 19, N-{4-[2-(3-Methylphenyl)imidazo[1,2-b]pyridazin-3-yl]pyridin-2-yl}benzamide]",IC50,[1],0.018 µM
same,IC50,[2],0.073 µM
"Cc1ccc(C(=O)Nc2cc(-c3c(-c4cccc(C)c4)nc4cccnn34)ccn2)cc1 [Example 20-1, 4-methyl-N-{4-[2-(3-methylphenyl)imidazo[1,2-b]pyridazin-3-yl]pyridin-2-yl}benzamide]",IC50,[1],0.018 µM
same,IC50,[2],0.073 µM
same,IC50,[3],0.0084 µM
"COc1ccc(C(=O)Nc2cc(-c3c(-c4ccc(F)c(C)c4)nc4cccnn34)ccn2)cc1 [Example 21-16, N-{4-[2-(4-fluoro-3-methylphenyl)imidazo[1,2-b]pyridazin-3-yl]pyridin-2-yl}-4-methoxybenzamide]",IC50,[1],0.014 µM
same,IC50,[2],0.041 µM
same,IC50,[3],0.0012 µM
"Cc1cccc(-c2nc3cccnn3c2-c2ccnc(NC(=O)Nc3ccccc3)c2)c1 [Example 26, N-{4-[2-(3-Methylphenyl)imidazo[1,2-b]pyridazin-3-yl]pyridin-2-yl}-N′-phenylurea]",IC50,[1],0.33 µM
same,IC50,[2],0.077 µM
same,IC50,[3],0.022 µM
"Cc1cc(-c2nc3cccnn3c2-c2ccnc(NC(=O)c3ccc(F)cc3)c2)ccc1F [Example 41-1, 4-fluoro-N-{4-[2-(4-fluoro-3-methylphenyl)imidazo[1,2-b]pyridazin-3-yl]pyridin-2-yl}benzamide]",IC50,[1],0.015 µM
same,IC50,[2],0.035 µM
same,IC50,[3],0.0081 µM
"Cc1cc(-c2nc3cccnn3c2-c2ccnc(NC(=O)C3CC3)c2)ccc1F [Example 42-3, N-{4-[2-(4-fluoro-3-methylphenyl)imidazo[1,2-b]pyridazin-3-yl]pyridin-2-yl}cyclopropanecarboxamide]",IC50,[1],0.0095 µM
same,IC50,[2],0.035 µM
same,IC50,[3],0.0087 µM
"CSCC(=O)Nc1cc(-c2c(-c3ccc(F)c(C)c3)nc3cccnn23)ccn1 [Example 42-6, N-{4-[2-(4-fluoro-3-methylphenyl)imidazo[1,2-b]pyridazin-3-yl]pyridin-2-yl}-2-(methylthio)acetamide]",IC50,[1],0.0061 µM
same,IC50,[2],0.011 µM
same,IC50,[3],0.0077 µM
"Cc1cc(-c2nc3cccnn3c2-c2ccnc(NC(=O)c3ccncc3)c2)ccc1F [Example 42-23, N-{4-[2-(4-fluoro-3-methylphenyl)imidazo[1,2-b]pyridazin-3-yl]pyridin-2-yl}isonicotinamide]",IC50,[1],0.01 µM
same,IC50,[2],0.014 µM
"Cc1ccc(C(=O)Nc2cc(-c3c(-c4ccc(F)c(C)c4)nc4cccnn34)ccn2)cn1 [Example 42-27, N-{4-[2-(4-fluoro-3-methylphenyl)imidazo[1,2-b]pyridazin-3-yl]pyridin-2-yl}-6-methylnicotinamide]",IC50,[1],0.0015 µM
same,IC50,[2],0.016 µM
"Cc1cc(-c2nc3cccnn3c2-c2ccnc(NC(=O)c3ccc4ncsc4c3)c2)ccc1F [Example 42-35, N-{4-[2-(4-fluoro-3-methylphenyl)imidazo[1,2-b]pyridazin-3-yl]pyridin-2-yl}-1,3-benzothiazole-6-carboxamide]",IC50,[1],0.0025 µM
same,IC50,[2],0.0062 µM
same,IC50,[3],0.0039 µM
"Cc1cc(-c2nc3cccnn3c2-c2ccnc(NC(=O)c3ccc4ncccc4c3)c2)ccc1F [Example 42-36, N-{4-[2-(4-fluoro-3-methylphenyl)imidazo[1,2-b]pyridazin-3-yl]pyridin-2-yl}-6-quinolinecarboxamide]",IC50,[1],0.0071 µM
same,IC50,[2],0.011 µM
same,IC50,[3],0.0034 µM
"Cc1cc(-c2nc3cccnn3c2-c2ccnc(NC(=O)NCCO)c2)ccc1F [Example 51-11, N-{4-[2-(4-fluoro-3-methylphenyl)imidazo[1,2-b]pyridazin-3-yl]pyridin-2-yl}-N′-(2-hydroxyethyl)urea]",IC50,[1],0.01 µM
same,IC50,[2],0.064 µM
same,IC50,[3],0.007 µM
"Cc1cc(-c2nc3cccnn3c2-c2ccnc(NC(=O)NCCC#N)c2)ccc1F [Example 51-14, N-(2-cyanoethyl)-N′-{4-[2-(4-fluoro-3-methylphenyl)imidazo[1,2-b]pyridazin-3-yl]pyridin-2-yl}urea]",IC50,[1],0.001 µM
same,IC50,[2],0.032 µM
same,IC50,[3],0.0049 µM
"Cc1cc(C(=O)Nc2cc(-c3c(-c4ccc(F)c(C)c4)nc4cccnn34)ccn2)ccn1 [Example 58, N-{4-[2-(4-Fluoro-3-methylphenyl)imidazo[1,2-b]pyridazin-3-yl]pyridin-2-yl}-2-methylisonicotinamide]",IC50,[1],0.0022 µM
same,IC50,[2],0.041 µM
"Cc1cc(-c2nc3cccnn3c2-c2ccnc(NC(=O)c3cccnc3)c2)ccc1F [Example 59, N-{4-[2-(4-Fluoro-3-methylphenyl)imidazo[1,2-b]pyridazin-3-yl]pyridin-2-yl}nicotinamide]",IC50,[1],0.0029 µM
same,IC50,[2],0.02 µM
"Cc1cccc(-c2nc3cccnn3c2-c2ccnc(Nc3ccccc3C)c2)c1 [Example Compound 6-10, N-(2-methylphenyl)-4-[2-(3-methylphenyl)imidazo[1,2-b]pyridazin-3-yl]pyridin-2-amine]",IC50,[1],0.0098 µM
same,IC50,[2],0.082 µM
same,IC50,[3],0.0026 µM
